For six compounds, Solubility and solubility results are on record in patent US9593149B2, “Amylin and calcitonin receptor agonist” (Novo Nordisk A/S, priority 2014, dated 2017).

≈ marks a conversion by molar mass, not a printed value. Numbered stars: 1 amine (or outer) side, 2 acyl side, 3 side chain; on linkers, the order of the positions; unused ones are H or OH. Side chains are listed from the residue outwards. Peptide text beside a SMILES is read from it. * marks the point of attachment. C20 diacid = O=C(O)CCCCCCCCCCCCCCCCCCC(=O)*; C18 diacid = O=C(O)CCCCCCCCCCCCCCCCC(=O)*; γGlu = O=C(O)[C@H](CCC(=O)[*:2])N[*:1]

The nature of the data set: Assay (IV) determination of solubility. Type of data set: physicochemical. As for the experimental part:
Assay (IV)—Determination of Solubility
The mimylin peptide was dissolved in water at ˜500 nmol/ml and mixed 1:1 with a series of buffers (100 mM glycylglycine pH 3.0, 100 mM glycylglycine pH 4.0, 100 mM glycylglycine pH 5.0, 100 mM bistrispropane pH 6.0, 100 mM bistrispropane pH 6.5, 100 mM bistrispropane pH 7.0, 100 mM bistrispropane pH 7.5, 100 mM bistrispropane pH 8.0).

Turning to `CC(C)C[C@H](NC(=O)CNC(=O)[C@H](CO)NC(=O)[C@H](C)N)C(=O)N[C@@H](CO)C(=O)N[C@H](C(=O)N[C@@H](C)C(=O)N[C@@H](C)C(=O)N[C@@H](CC(C)C)C(=O)NCC(=O)N[C@@H](CCCNC(=N)N)C(=O)N[C@@H](CC(C)C)C(=O)N[C@@H](CO)C(=O)N[C@@H](CCC(N)=O)C(=O)N[C@@H](CCC(=O)O)C(=O)N[C@@H](CC(C)C)C(=O)N[C@@H](Cc1cnc[nH]1)C(=O)N[C@@H](CCC(=O)O)C(=O)N[C@@H](CC(C)C)C(=O)N[C@@H](CCC(N)=O)C(=O)N[C@H](C(=O)N[C@@H](Cc1ccc(O)cc1)C(=O)N1CCC[C@H]1C(=O)N[C@@H](CCCNC(=N)N)C(=O)N[C@H](C(=O)N[C@@H](CCC(=O)O)C(=O)N[C@H](C(=O)NCC(=O)N[C@@H](CO)C(=O)N[C@@H](CCCCNC(=O)CC[C@H](NC(=O)CCCCCCCCCCCCCCCCCCC(=O)O)C(=O)O)C(=O)N[C@H](C(=O)N[C@@H](Cc1ccc(O)cc1)C(N)=O)[C@@H](C)O)[C@@H](C)O)[C@@H](C)O)[C@@H](C)O)[C@@H](C)O` [compound 107, [des1, 4G, 15Q, 21Q, 23Y, 30S, 31K(C20 diacid-gGlu), 32T, 33Y]mimylin] (H-ASGLSTAALGRLSQELHELQTYPRTETGSK([γGlu-C20 diacid])TY-NH2), the Solubility entry is reported as “≧200 μM” (pH 3.0); “≧200 μM” (pH 4.0); “≧200 μM” (pH 5.0); “≧200 μM” (pH 7.5); “≧200 μM” (pH 8.0). Further, the solubility at 18 h is, setting by setting: (pH 6.0) 148 µM (≈ 580 µg/mL); (pH 6.5) 129 µM (≈ 506 µg/mL); (pH 7.0) 74 µM (≈ 290 µg/mL).

For the compound `CC(C)C[C@H](NC(=O)CNC(=O)[C@H](CO)NC(=O)[C@H](C)NC(=O)CC[C@H](NC(=O)CCCCCCCCCCCCCCCCCCC(=O)O)C(=O)O)C(=O)N[C@@H](CO)C(=O)N[C@H](C(=O)N[C@@H](C)C(=O)N[C@@H](C)C(=O)N[C@@H](CC(C)C)C(=O)NCC(=O)N[C@@H](CCCNC(=N)N)C(=O)N[C@@H](CC(C)C)C(=O)N[C@@H](CO)C(=O)N[C@@H](CCC(N)=O)C(=O)N[C@@H](CCC(=O)O)C(=O)N[C@@H](CC(C)C)C(=O)N[C@@H](Cc1cnc[nH]1)C(=O)N[C@@H](CCC(=O)O)C(=O)N[C@@H](CC(C)C)C(=O)N[C@@H](CCC(=O)O)C(=O)N[C@H](C(=O)N[C@@H](Cc1ccc(O)cc1)C(=O)N1CCC[C@H]1C(=O)N[C@@H](CCCNC(=N)N)C(=O)N[C@H](C(=O)N[C@@H](CCC(=O)O)C(=O)N[C@H](C(=O)NCC(=O)N[C@@H](CO)C(=O)NCC(=O)N[C@H](C(=O)N[C@@H](Cc1ccc(O)cc1)C(N)=O)[C@@H](C)O)[C@@H](C)O)[C@@H](C)O)[C@@H](C)O)[C@@H](C)O` [compound 108, [N-terminal(C20 diacid-gGlu), des1, 4G, 15Q, 21E, 23Y, 30S, 31G, 32T, 33Y]mimylin] ({C20 diacid-γGlu}-ASGLSTAALGRLSQELHELETYPRTETGSGTY-NH2), the Solubility entry by setting is: (pH 3.0) “≧200 μM”; (pH 4.0) “≧200 μM”; (pH 6.0) “≧200 μM”; (pH 6.5) “≧200 μM”; (pH 7.0) “≧200 μM”; (pH 7.5) “≧200 μM”. Also, the Solubility result (pH 8.0) was “≧200 μM”. Further, the solubility at 18 h (pH 5.0) is listed as 65 µM (≈ 250 µg/mL).

`CC(C)C[C@H](NC(=O)[C@H](C)NC(=O)[C@H](C)NC(=O)[C@@H](NC(=O)[C@H](CO)NC(=O)[C@H](CC(C)C)NC(=O)[C@H](CCC(=O)O)NC(=O)[C@H](CO)NC(=O)[C@H](C)NC(=O)[C@H](C)NC(=O)[C@H](CCC(=O)O)NC(=O)CC[C@H](NC(=O)CCCCCCCCCCCCCCCCCCC(=O)O)C(=O)O)[C@@H](C)O)C(=O)NCC(=O)N[C@@H](CCCNC(=N)N)C(=O)N[C@@H](CC(C)C)C(=O)N[C@@H](CO)C(=O)N[C@@H](C)C(=O)N[C@@H](CCC(=O)O)C(=O)N[C@@H](CC(C)C)C(=O)N[C@@H](Cc1cnc[nH]1)C(=O)N[C@@H](CCC(=O)O)C(=O)N[C@@H](CC(C)C)C(=O)N[C@@H](C)C(=O)N[C@H](C(=O)N[C@@H](Cc1ccc(O)cc1)C(=O)N1CCC[C@H]1C(=O)N[C@@H](CCCNC(=N)N)C(=O)N[C@H](C(=O)N[C@@H](CCC(=O)O)C(=O)N[C@H](C(=O)NCC(=O)N[C@@H](CO)C(=O)NCC(=O)N[C@@H](CO)C(=O)N1CCC[C@H]1C(N)=O)[C@@H](C)O)[C@@H](C)O)[C@@H](C)O` [compound 83, [N-terminal(C20 diacid-gGlu), −1E, 1A, 23Y, 30S, 31G]mimylin] ({C20 diacid-γGlu}-EAASELSTAALGRLSAELHELATYPRTETGSGSP-NH2): the Solubility result (pH 3.0) is listed as “≧200 μM”; the Solubility entry (pH 4.0) was “≧200 μM”; the Solubility entry (pH 5.0) is given as “≧200 μM”; the Solubility entry (pH 6.0) is “≧200 μM”; the Solubility result (pH 6.5) was “≧200 μM”; the Solubility entry (pH 7.0) is given as “≧200 μM”. The Solubility result was “≧200 μM” (pH 7.5) and “≧200 μM” (pH 8.0).

Take `CC(C)C[C@H](NC(=O)[C@H](C)NC(=O)[C@H](C)NC(=O)[C@@H](NC(=O)[C@H](CO)NC(=O)[C@H](Cc1cnc[nH]1)NC(=O)[C@H](CCC(=O)O)NC(=O)[C@H](CO)NC(=O)[C@H](C)NC(=O)[C@H](CCC(=O)O)NC(=O)CCCCCCCCCCCCCCCCC(=O)O)[C@@H](C)O)C(=O)NCC(=O)N[C@@H](CCCNC(=N)N)C(=O)N[C@@H](CC(C)C)C(=O)N[C@@H](CO)C(=O)N[C@@H](C)C(=O)N[C@@H](CCC(=O)O)C(=O)N[C@@H](CC(C)C)C(=O)N[C@@H](Cc1cnc[nH]1)C(=O)N[C@@H](CCC(=O)O)C(=O)N[C@@H](CC(C)C)C(=O)N[C@@H](C)C(=O)N[C@H](C(=O)N[C@@H](CC(C)C)C(=O)N1CCC[C@H]1C(=O)N[C@@H](CCCNC(=N)N)C(=O)N[C@H](C(=O)N[C@@H](CCC(=O)O)C(=O)N[C@H](C(=O)NCC(=O)N1CCC[C@H]1C(=O)N[C@@H](CCC(=O)O)C(=O)N[C@@H](CO)C(=O)N1CCC[C@H]1C(N)=O)[C@@H](C)O)[C@@H](C)O)[C@@H](C)O` [compound 17, [N-terminal(C18 diacid), 5H]mimylin] ({C18 diacid}-EASEHSTAALGRLSAELHELATLPRTETGPESP-NH2): the Solubility entry is, setting by setting: (pH 3.0) “≧200 μM”; (pH 4.0) “≧200 μM”; (pH 5.0) “≧200 μM”; (pH 6.0) “≧200 μM”; (pH 6.5) “≧200 μM”; (pH 7.0) “≧200 μM”. For the same compound, the Solubility entry by setting is: (pH 7.5) “≧200 μM”; (pH 8.0) “≧200 μM”.

For `CC(C)C[C@H](NC(=O)[C@H](CCC(=O)O)NC(=O)[C@H](Cc1cnc[nH]1)NC(=O)[C@H](CC(C)C)NC(=O)[C@H](CCC(=O)O)NC(=O)[C@H](C)NC(=O)[C@H](CO)NC(=O)[C@H](CC(C)C)NC(=O)[C@H](CCCNC(=N)N)NC(=O)CNC(=O)[C@H](CC(C)C)NC(=O)[C@@H](NC(=O)[C@H](C)NC(=O)[C@@H](NC(=O)[C@H](CO)NC(=O)[C@H](CC(C)C)NC(=O)[C@H](CCC(=O)O)NC(=O)[C@H](CO)NC(=O)[C@H](C)NC(=O)[C@H](CCC(=O)O)NC(=O)CCCCCCCCCCCCCCCCC(=O)O)[C@@H](C)O)C(C)C)C(=O)N[C@@H](C)C(=O)N[C@H](C(=O)N[C@@H](CC(C)C)C(=O)N1CCC[C@H]1C(=O)N[C@@H](CCCNC(=N)N)C(=O)N[C@H](C(=O)N[C@@H](CCC(=O)O)C(=O)N1CCC[C@H]1C(=O)NCC(=O)N1CCC[C@H]1C(=O)N[C@@H](CCC(=O)O)C(=O)N[C@@H](CO)C(=O)N1CCC[C@H]1C(N)=O)[C@@H](C)O)[C@@H](C)O` [compound 32, [N-terminal(C18 diacid), 9V, 28P]mimylin] ({C18 diacid}-EASELSTAVLGRLSAELHELATLPRTEPGPESP-NH2), the Solubility entry (pH 3.0) is “≧200 μM”; the Solubility entry (pH 4.0) was “≧200 μM”; the Solubility result (pH 5.0) is “≧200 μM”; the Solubility result (pH 6.0) is “≧200 μM”; the Solubility result (pH 6.5) is listed as “≧200 μM”; the Solubility entry (pH 7.0) is “≧200 μM”. The Solubility result was “≧200 μM” (pH 7.5) and “≧200 μM” (pH 8.0).

`CC(C)C[C@H](NC(=O)[C@H](CCC(=O)O)NC(=O)[C@H](Cc1cnc[nH]1)NC(=O)[C@H](CC(C)C)NC(=O)[C@H](CCC(=O)O)NC(=O)[C@H](C)NC(=O)[C@H](CO)NC(=O)[C@H](CC(C)C)NC(=O)[C@H](CCCNC(=N)N)NC(=O)CNC(=O)[C@H](CC(C)C)NC(=O)[C@@H](NC(=O)[C@H](C)NC(=O)[C@@H](NC(=O)[C@H](CO)NC(=O)[C@H](CC(C)C)NC(=O)[C@H](CCC(=O)O)NC(=O)[C@H](CO)NC(=O)[C@H](C)NC(=O)[C@H](CCC(=O)O)NC(=O)CCCCCCCCCCCCCCCCC(=O)O)[C@@H](C)O)C(C)C)C(=O)N[C@@H](C)C(=O)N[C@H](C(=O)N[C@@H](CC(C)C)C(=O)N1CCC[C@H]1C(=O)N1CCC[C@H]1C(=O)N[C@H](C(=O)N[C@@H](CCC(=O)O)C(=O)N[C@H](C(=O)NCC(=O)N1CCC[C@H]1C(=O)N[C@@H](CCC(=O)O)C(=O)N[C@@H](CO)C(=O)N1CCC[C@H]1C(N)=O)[C@@H](C)O)[C@@H](C)O)[C@@H](C)O` [compound 31, [N-terminal(C18 diacid), 9V, 25P]mimylin] ({C18 diacid}-EASELSTAVLGRLSAELHELATLPPTETGPESP-NH2): the Solubility entry reads like this: (pH 3.0) “≧200 μM”; (pH 4.0) “≧200 μM”; (pH 5.0) “≧200 μM”; (pH 6.0) “≧200 μM”; (pH 6.5) “≧200 μM”; (pH 7.0) “≧200 μM”. The Solubility entry runs as follows: (pH 7.5) “≧200 μM”; (pH 8.0) “≧200 μM”.
